Counter-ions that a name gives are not always drawn.
Biological target: muscarinic acetylcholine receptors
Assay: Inhibition of specific binding of 3H-Oxotremorine-M (3H-Oxo)
Parameters: species or system rat (male Wistar
Settings: rat cortex; 3H-Oxotremorine 1.0 nM; 20 mM Hepes pH 7.4; 30 min at 25° C.
Method: The pharmacological properties of the compounds of the present invention (Formula I) can be illustrated by determining their capability to inhibit the specific binding of ^3 H-Oxotremorine-M (^3 H-Oxo).
^3 H-Oxo labels muscarinic receptors in the CNS (with a preference for agonist domaines of the receptors). Three different sites are labelled by 3H-Oxo. These sites have affinity of 1.0, 20 and 3000 nM, respectively. Using the present experimental conditions only the high and medium affinity sites are determined. The inhibitory effects of compounds on ^3 H-Oxo binding reflects the affinity for muscarinic acetylcholine receptors.
All preparations are performed at 0°-4° C. unless otherwise indicated. Fresh cortex (0.1-1 g) from male Wistar rats (150-250 g) is homogenized for 5-10 s in 10 ml 20 mM Hepes pH: 7.4, with an Ultra-Turrax homogenizer. The homogenizer is rinsed with 10 ml of buffer and the combined suspension centrifuged for 15 min at 40,000×g. The pellet is washed three times with buffer. In each step the pellet is homogenized as before in 2×10 ml of buffer and centrifuged for 10 min at 40,000×g. The final pellet is homogenized in 20 mM Hepes pH: 7.4 (100 ml per g of original tissue) and used for binding assay. Aliquots of 0.5 ml is added 25 μl of test solution and 25 μl of ^3 H-Oxotremorine (1.0 nM, final concentration) mixed and incubated for 30 min at 25° C. Non-specific binding is determined in triplicate using Arecoline (1 μg/ml, final concentration) as the test substance. After incubation samples are added 5 ml of ice-cold buffer and poured directly onto Whatman GF/C glass fiber filters under suction and immediately washed 2 times with 5 ml of ice-cold buffer. The amount of radioactivity on the filters are determined by conventional liquid scintillation counting. Specific binding is total binding minus non-specific binding. Test substances are dissolved in 10 ml water (if necessary heated on a steam-bath for less than 5 minutes) at a concentration of 2.2 mg/ml. 25-75% inhibition of specific binding must be obtained before calculation of IC50.
The test value will be given as IC50 (the concentration (ng/ml) of the test substance which inhibits the specific binding of ^3 H-Oxo by 50%). [formula] where Co is specific binding in control assays and Cx is the specific binding in the test assay. (The calculations assume normal mass-action kinetics).

| SMILES | Inhibition in vitro OXO BINDING (IC50: concentration which inhibits the specific binding of 3H-Oxo by 50%) [ng/mL] |
| --- | --- |
| COc1nsnc1C1=CCCN(C)C1.O=C(O)C(=O)O [Compound 1, 1,2,5,6-tetrahydro-3-(4-methoxy-1,2,5-thiadiazol-3-yl)-1-methylpyridine oxalate] | 1.5 |
| CCOc1nsnc1C1=CCCN(C)C1.O=C(O)C(=O)O [Compound 2, 3-(4-ethoxy-1,2,5-thiadiazol-3-yl)-1,2,5,6-tetrahydro-1-methylpyridine oxalate] | 0.4 |
| CCCOc1nsnc1C1=CCCN(C)C1.O=C(O)C(=O)O [Compound 3, 1,2,5,6-tetrahydro-1-methyl-3-(4-propoxy-1,2,5-thiadiazol-3-yl)pyridine oxalate] | 0.2 |
| CCCCOc1nsnc1C1=CCCN(C)C1.O=C(O)C(=O)O [Compound 4, 3-(4-butoxy-1,2,5-thiadiazol-3-yl)-1,2,5,6-tetrahydro-1-methylpyridine oxalate] | 0.5 |
| CC(C)Oc1nsnc1C1=CCCN(C)C1 [Compound 5, 1,2,5,6-tetrahydro-3-(4-isopropoxy-1,2,5-thiadiazol-3-yl)-1-methylpyridineoxalate] | 3.5 |
| CCCCCOc1nsnc1C1=CCCN(C)C1.O=C(O)C(=O)O [Compound 6, 1,2,5,6-tetrahydro-1-methyl-3-(4-pentyloxy-1,2,5-thiadiazol-3-yl)pyridine oxalate] | 1.9 |
| CC(C)COc1nsnc1C1=CCCN(C)C1.O=C(O)C(=O)O [Compound 7, 1,2,5,6-tetrahydro-3-(4-isobutoxy-1,2,5-thiadiazol-3-yl)-1-methylpyridine oxalate] | 1.7 |
| CC(C)CCOc1nsnc1C1=CCCN(C)C1.O=C(O)C(=O)O [Compound 8, 1,2,5,6-tetrahydro-3-(4-isopentyloxy-1,2,5-thiadiazol-3-yl)-1-methylpyridine oxalate] | 1.9 |
| CCCCCCOc1nsnc1C1=CCCN(C)C1 [Compound 9, 3-(4-hexyloxy-1,2,5-thiadiazol-3-yl)-1,2,5,6-tetrahydro-1-methylpyridineoxalate] | 3.6 |
| CN1CCC=C(c2nsnc2OCc2ccccc2)C1.O=C(O)C(=O)O [Compound 10, 3-(4-benzyloxy-1,2,5-thiadiazol-3-yl)-1,2,5,6-tetrahydro-1-methylpyridine oxalate] | 2.3 |
| C=CCCOc1nsnc1C1=CCCN(C)C1.O=C(O)C(=O)O [Compound 11, 3-(4-(3-butenyloxy)-1,2,5-thiadiazol-3-yl)-1,2,5,6-tetrahydro-1-methylpyridine oxalate] | 0.9 |
| CC#CCOc1nsnc1C1=CCCN(C)C1.O=C(O)C(=O)O [Compound 12, 3-(4-(2-butynyloxy)-1,2,5-thiadiazol-3-yl)-1,2,5,6-tetrahydro-1-methylpyridine oxalate] | 0.3 |
| C#CCOc1nsnc1C1=CCCN(C)C1.O=C(O)C(=O)O [Compound 13, 1,2,5,6-tetrahydro-1-methyl-3-(4-propargyloxy-1,2,5-thiadiazol-3-yl)pyridine oxalate] | 0.3 |
| CN1CCC=C(c2nsnc2OCC2CC2)C1.O=C(O)C(=O)O [Compound 14, 3-(4-cyclopropylmethoxy-1,2,5-thiadiazol-3-yl)-1,2,5,6-tetrahydro-1-methylpyridine oxalate] | 0.4 |
| COCCOc1nsnc1C1=CCCN(C)C1.O=C(O)C(=O)O [Compound 15, 1,2,5,6-tetrahydro-3-(4-methoxyethoxy-1,2,5-thiadiazol-3-yl)-1-methylpyridine oxalate] | 0.6 |
| CN1CCC=C(c2nsnc2Cl)C1.O=C(O)C(=O)O [Compound 16, 3-(4-chloro-1,2,5-thiadiazol-3-yl)-1,2,5,6-tetrahydro-1-methylpyridine oxalate] | 3.3 |

| SMILES | Inhibition in vitro OXO BINDING (IC50: concentration which inhibits the specific binding of 3H-Oxo by 50%) [ng/mL] |
| --- | --- |
| Cl.Clc1nsnc1C1=CCCNC1 [Compound 17, 3-(4-chloro-1,2,5-thiadiazol-3-yl)-1,2,5,6-tetrahydropyridine hydrochloride] | 19.0 |
| CCCCOc1nsnc1C1=CCCNC1.O=C(O)C(=O)O [Compound 18, 3-(4-butoxy-1,2,5-thiadiazol-3-yl)-1,2,5,6-tetrahydropyridine oxalate] | 3.6 |
| CCN1CCC=C(c2nsnc2Cl)C1.O=C(O)C(=O)O [Compound 19, 3-(4-chloro-1,2,5-thiadiazol-3-yl)-1-ethyl-1,2,5,6-tetrahydropyridine oxalate] | 92 |
| CCOc1nsnc1C1=CCCN(CC)C1.O=C(O)C(=O)O [Compound 20, 3-(4-ethoxy-1,2,5-thiadiazol-3-yl)-1-ethyl-1,2,5,6-tetrahydropyridine oxalate] | 5.9 |
| CCCCCCCOc1nsnc1C1=CCCN(C)C1.O=C(O)C(=O)O [Compound 21, 3-(4-heptyloxy-1,2,5-thiadiazol-3-yl)-1,2,5,6-tetrahydro-1-methylpyridine oxalate] | 2.4 |
| CC#CCCOc1nsnc1C1=CCCN(C)C1.O=C(O)C(=O)O [Compound 22, 3-(4-(3-pentynyloxy)-1,2,5-thiadiazol-3-yl)-1,2,5,6-tetrahydro-1-methylpyridine oxalate] | 0.4 |
| C=CCCCOc1nsnc1C1=CCCN(C)C1.O=C(O)C(=O)O [Compound 23, 3-(4-(4-pentenyloxy)-1,2,5-thiadiazol-3-yl)-1,2,5,6-tetrahydro-1-methylpyridine oxalate] | 0.3 |
| C=CCOc1nsnc1C1=CCCN(C)C1.O=C(O)C(=O)O [Compound 24, 3-(4-(2-propenyloxy)-1,2,5-thiadiazol-3-yl)-1,2,5,6-tetrahydro-1-methylpyridine oxalate] | 0.4 |
| CCCCCCCCOc1nsnc1C1=CCCN(C)C1 [Compound 25, 3-(4-octyloxy-1,2,5-thiadiazol-3-yl)-1,2,5,6-tetrahydro-1-methylpyridineoxalate] | 12 |
| CCC#CCCOc1nsnc1C1=CCCN(C)C1.O=C(O)C(=O)O [Compound 26, 3-(4-(3-hexynyloxy) -1,2,5-thiadiazol-3-yl)-1,2,5,6-tetrahydro-1-methylpyridine oxalate] | 0.4 |
| CC(C)=CCOc1nsnc1C1=CCCN(C)C1.O=C(O)C(=O)O [Compound 27, 3-(4-(3-methyl-2-butenyloxy)-1,2,5-thiadiazol-3-yl)-1,2,5,6-tetrahydro-1-methylpyridine oxalate] | 0.8 |
| C=CC(C)Oc1nsnc1C1=CCCN(C)C1 (stereo not shown) [Compound 28, 3-(4-(3-butenyl-2-oxy)-1,2,5-thiadiazol-3-yl)-1,2,5,6-tetrahydro-1-methylpyridine oxalate] | 1.3 |
| CC=CCCCOc1nsnc1C1=CCCN(C)C1.O=C(O)C(=O)O [Compound 29, 3-(4-(4-hexenyloxy)-1,2,5-thiadiazol-3-yl)-1,2,5,6-tetrahydro-1-methylpyridine oxalate] | 0.6 |
| CC/C=C/CCOc1nsnc1C1=CCCN(C)C1.O=C(O)C(=O)O [Compound 30, trans-3-(4-(3-hexenyloxy)-1,2,5-thiadiazol-3-yl)-1,2,5,6-tetrahydro-1-methylpyridine oxalate] | 0.4 |
| CC/C=C\COc1nsnc1C1=CCCN(C)C1.O=C(O)C(=O)O [Compound 31, cis-3-(4-(2-pentenyloxy)-1,2,5-thiadiazol-3-yl)-1,2,5,6-tetrahydro-1-methylpyridine oxalate] | 0.7 |

From US5712297A, “Piperdine compounds and their preparation and use” (Novo Nordisk A/S, priority 1989, dated 1998)
